Results: patent US20040116493A1, “Anti-helicobacterial agents” (priority 2000, published 2004)
In brackets after ≈: the same amount, converted by molar mass. Several values for one entry are separate records, joined by “and”; a condition that tells them apart may be missing. Equal entries are not always repeated.

Experiments:
[1] = test system: Enterococcus faecalis ATCC 19433; assay: Agar plate dilution method, MIC; type: cell-based; settings: ATCC19433; Enterococcus faecalis ATCC 19433, 10% horse serum-added MH agar, overnight
Experimental: (§1) Firstly, the thus-synthesized compound of the present invention (2) was studied for its activity in vitro. For antibacterial activity, an agar plate dilution method was employed. The agar plate dilution method is well known in the art.
(§2) Specifically, a test compound containing the compound of the present invention was dissolved into dimethylsulfoxide, and serially diluted by two fold each time with sterile distilled water to prepare an antibacterial activity sample for the test compound containing the compound of the present invention. A BHI (Brain Heart Infusion) agar with 7% horse blood was used as medium for investigation of the antibacterial activity against H. pylori and H. felis. 1 ml of the sample of the compound of the present invention was added to 9 ml of the medium, followed by mixing to prepare an agar plate for measuring the antibacterial activity. MH (Mueller Hinton) agar medium was used to investigate the antibacterial activities against Pseudomonas aeruginosa, Escherichia coli, Klebsiella pneumoniae, and Staphylococcus aureus; and 10% horse serum-added MH agar medium was used to investigate the antibacterial activities against Streptococcus pneumoniae and Enterococcus faecalis. In both cases, agar plates for measuring the antibacterial activities are prepared in a manner similar to that for H. pylori and H. felis. For H. pylori and H. felis out of the bacteria to be subjected to the tests, 1 ml of each frozen bacterium stock solution was inoculated to 9 ml of 7% bovine fetal serum-added BHI liquid medium, and cultured at 37° C. for 48 hours in a 10% CO2 incubator. Each culture bacterium solution was prepared with the same medium to 10^6 CFU/ml (colony formation unit/milliliter). 5 μl of the prepared bacterium solution was inoculated to the antibacterial activity measuring agar medium, and cultured at 37° C. for 4 days in a 10% CO2 incubator. MH liquid medium was used for Pseudomonas aeruginosa, Escherichia coli, Klebsiella pneumoniae, and Staphylococcus aureus; and 10% horse serum-added MH liquid medium was used for Streptococcus pneumoniae and Enterococcus faecalis. In both cases, 1 ml of each frozen bacterium stock solution was inoculated to 9 ml of the medium, and cultured at 37° C. overnight. Each culture bacterium solution was prepared with the same medium as that had been used in the incubation to 10^6 CFU/ml. 5 μl of the prepared bacterium solution was inoculated to the antibacterial activity measuring agar medium, and cultured at 37° C. overnight.
(§3) The results are represented by MIC (Minimum Inhibitory Concentration).

[2] = test system: Helicobacter felis ATCC 49179; assay: Agar plate dilution method, MIC; type: cell-based; settings: ATCC49179, 96 h; Helicobacter felis ATCC 49179, BHI agar with 7% horse blood, 4 days
Experimental: as §1, §2, §3

[3] = test system: Helicobacter pylori ATCC 43504; assay: Agar plate dilution method, MIC; type: cell-based; settings: ATCC43504, 96 h; Helicobacter pylori ATCC 43504, BHI agar with 7% horse blood, 4 days
Experimental: as §1, §2, §3

[4] = test system: Helicobacter pylori ATCC 43629; assay: Agar plate dilution method, MIC; type: cell-based; settings: ATCC43629, 96 h; Helicobacter pylori ATCC 43629, BHI agar with 7% horse blood, 4 days
Experimental: as §1, §2, §3

[5] = test system: Helicobacter pylori SR-9043; assay: Agar plate dilution method, MIC; type: cell-based; settings: SR9043, 96 h; Helicobacter pylori SR-9043, BHI agar with 7% horse blood, 4 days
Experimental: as §1, §2, §3

[6] = test system: Staphylococcus aureus FDA 209P; assay: Agar plate dilution method, MIC; type: cell-based; settings: FDA209P, MH agar, overnight
Experimental: as §1, §2, §3

[7] = test system: Streptococcus pneumoniae SR-1003; assay: Agar plate dilution method, MIC; type: cell-based; settings: SR1003; Streptococcus pneumoniae SR-1003, 10% horse serum-added MH agar, overnight
Experimental: as §1, §2, §3

[8] = test system: Escherichia coli NIHJ JC-2; assay: Agar plate dilution method, MIC; type: cell-based; settings: NIHJJC2; Escherichia coli NIHJ JC-2, MH agar, overnight
Experimental: as §1, §2
(§4) The antibacterial activity of the compound against a subject bacterium (MIC: Minimum Inhibitory Concentration) was a maximum dilution ratio at which the growth of inoculated bacteria was not observed by the unaided eye.
as §3

Helicobacter pylori SS1 = assay: Agar plate dilution method, MIC; type: cell-based; settings: 96 h; Helicobacter pylori SS1, BHI agar with 7% horse blood, 4 days
Experimental: as §1, §2, §4, §3

[9] = test system: Klebsiella pneumoniae ATCC 27736; assay: Agar plate dilution method, MIC; type: cell-based; settings: ATCC27736; Klebsiella pneumoniae ATCC 27736, MH agar, overnight
Experimental: as §1, §2, §4, §3

[10] = test system: Pseudomonas aeruginosa ATCC 25619; assay: Agar plate dilution method, MIC; type: cell-based; settings: ATCC25619; Pseudomonas aeruginosa ATCC 25619, MH agar, overnight
Experimental: as §1, §2, §4, §3

H. pylori ATCC 43504 = assay: In vivo bacterial eradication test in infected mice; set-up: species or system mice of the ICR strain; settings: for Bacterial eradication number / bacterial eradication % / Number of each bacterium in stomach: oral, three days; for Bacterial eradication number / bacterial eradication %: 3 samples; for Number of each bacterium in stomach: individual mice, limit of detection log 1.3; for bacterial eradication effect: 40 mg/kg
Experimental: Next, the compound of the present invention was studied as to whether or not it had bacterial eradication activity in vivo. 5-week old mice of the ICR strain from CLEA Japan, Inc. were used. These mice were infected with H. pylori ATCC 43504 (day 0). After the mice had been confirmed to be infected with H. pylori, the dose indicated in Table 3 was administered into the mice twice a day (AM 9 and PM 5) from day 20 to day 22. At day 23 which was the day after the last day of the administration, the mice were dissected and the number of bacteria within their stomachs were counted. The bacteria count measurement was conducted in the following manner. Phosphate buffer was added to the collected stomachs to prepare homogenates. These homogenates were inoculated to 7% horse blood-added agar medium to which various drugs were added in order to suppress the growth of bacteria other than the genus Helicobacter, and cultured at 37° C. for 7 days in a 10% CO2 incubator. The bacterial eradication activity was judged by detecting the presence or absence of the growth of the bacteria.

MIC [1] | MIC [2] | MIC [3] | MIC [4] | MIC [5] | MIC [6] | MIC [7] | MIC [8] | MIC (Helicobacter pylori SS1) | MIC [9] | MIC [10] | SMILES | Bacterial eradication number (H. pylori ATCC 43504; 20 mg/kg twice a day) | bacterial eradication % (H. pylori ATCC 43504; 20 mg/kg twice a day) | Number of each bacterium in stomach (H. pylori ATCC 43504; 20 mg/kg twice a day) | bacterial eradication effect (H. pylori ATCC 43504) | Bacterial eradication number (H. pylori ATCC 43504; 40 mg/kg twice a day) | bacterial eradication % (H. pylori ATCC 43504; 40 mg/kg twice a day) | Number of each bacterium in stomach (H. pylori ATCC 43504; 40 mg/kg twice a day) | bacterial eradication effect (samples) (H. pylori ATCC 43504; 20 mg/kg)
0.39 µg/mL (≈ 1.07 µM) | 0.1 µg/mL (≈ 0.274 µM) | 0.025 µg/mL (≈ 0.0684 µM) | 0.1 µg/mL (≈ 0.274 µM) | 0.39 µg/mL (≈ 1.07 µM) | 0.05 µg/mL (≈ 0.137 µM) | 0.05 µg/mL (≈ 0.137 µM) | 6.25 µg/mL (≈ 17.1 µM) | 0.39 µg/mL (≈ 1.07 µM) | 0.2 µg/mL (≈ 0.547 µM) | > 25 µg/mL | CC1(C)S[C@@H]2[C@H](NC(=O)[C@H](N)c3ccc(O)cc3)C(=O)N2[C@H]1C(=O)O [Amoxicillin, amoxicillin] | 1 | 33% | 1.60 log CFU/stomach and < 1.3 log CFU/stomach | not observed | 2 | 67% | <1.3, <1.3, log CFU/stomach (2×) and 1.78 log CFU/stomach | –
> 25 µg/mL | < 0.025 µg/mL | 0.025 µg/mL (≈ 0.0334 µM) | 0.1 µg/mL (≈ 0.134 µM) | > 25 µg/mL | 0.05 µg/mL (≈ 0.0668 µM) | 0.0125 µg/mL (≈ 0.0167 µM) | 12.5 µg/mL (≈ 16.7 µM) | 0.025 µg/mL (≈ 0.0334 µM) | > 25 µg/mL | > 25 µg/mL | CC[C@H]1OC(=O)[C@H](C)[C@@H](O[C@H]2C[C@@](C)(OC)[C@@H](O)[C@H](C)O2)[C@H](C)[C@@H](O[C@@H]2O[C@H](C)C[C@H](N(C)C)[C@H]2O)[C@](C)(OC)C[C@@H](C)C(=O)[C@H](C)[C@@H](O)[C@]1(C)O [Clarithromycin, clarithromycin] | 0 (0) | 0 (0) % | 2.79 log CFU/stomach and 2.89 log CFU/stomach and 3.37 log CFU/stomach | not observed | 0 (0) | 0 (0) % | 1.6, 1.6, log CFU/stomach (2×) and 2.38 log CFU/stomach | –
> 25 µg/mL | 0.1 µg/mL (≈ 0.238 µM) | 0.2 µg/mL (≈ 0.476 µM) | 0.2 µg/mL (≈ 0.476 µM) | 0.39 µg/mL (≈ 0.928 µM) | > 25 µg/mL | > 25 µg/mL | > 25 µg/mL | 0.1 µg/mL (≈ 0.238 µM) | > 25 µg/mL | > 25 µg/mL | O=C1c2ccc3c4c(ccc(c24)C(=O)N1c1ccccn1)C(=O)N(c1ccccn1)C3=O [Compound 2, N,N′-bis-(2-pyridyl)naphthalene-1,4,5,8-tetracarboxylate diimide] | 3 | 100% | <1.3, <1.3, log CFU/stomach (2×) and <1.3 log CFU/stomach | – | – | – | – | 3/3
– | – | 6.25 µg/mL (≈ 21.2 µM) | – | – | > 25 µg/mL | – | > 25 µg/mL | – | – | > 25 µg/mL | CN1C(=O)c2ccc3c4c(ccc(c24)C1=O)C(=O)N(C)C3=O [Compound 3] | – | – | – | – | – | – | – | –
– | – | 2.5 µg/mL (≈ 5.78 µM) | – | – | > 25 µg/mL | – | > 25 µg/mL | – | – | > 25 µg/mL | O=C1c2ccc3c4c(ccc(c24)C(=O)N1c1nccs1)C(=O)N(c1nccs1)C3=O [Compound 4] | – | – | – | – | – | – | – | –
– | – | 12.5 µg/mL (≈ 22.5 µM) | – | – | > 25 µg/mL | – | > 25 µg/mL | – | – | > 25 µg/mL | O=C1c2ccccc2C(=O)N1N1C(=O)c2ccc3c4c(ccc(c24)C1=O)C(=O)N(N1C(=O)c2ccccc2C1=O)C3=O [Compound 5] | – | – | – | – | – | – | – | –
– | – | 0.31 µg/mL (≈ 0.707 µM) | – | – | > 25 µg/mL | – | > 25 µg/mL | – | – | > 25 µg/mL | CC(=O)OCCN1C(=O)c2ccc3c4c(ccc(c24)C1=O)C(=O)N(CCOC(C)=O)C3=O [Compound 6] | – | – | – | – | – | – | – | –
– | – | 0.39 µg/mL (≈ 0.955 µM) | – | – | > 25 µg/mL | – | > 25 µg/mL | – | – | > 25 µg/mL | CN(C)CCN1C(=O)c2ccc3c4c(ccc(c24)C1=O)C(=O)N(CCN(C)C)C3=O [Compound 7] | – | – | – | – | – | – | – | –
> 25 µg/mL | 0.78 µg/mL (≈ 4.56 µM) | > 25 µg/mL | 3.13 µg/mL (≈ 18.3 µM) | > 25 µg/mL | > 25 µg/mL | > 25 µg/mL | > 25 µg/mL | 0.78 µg/mL (≈ 4.56 µM) | > 25 µg/mL | > 25 µg/mL | Cc1ncc([N+](=O)[O-])n1CCO [Metronidazole, metronidazole] | – | – | – | – | – | – | – | –

SMILES | MIC [1] | MIC [2] | MIC [3] | MIC [4] | MIC [5] | MIC [6] | MIC [7] | MIC [8] | MIC (Helicobacter pylori SS1) | MIC [9] | MIC [10] | Bacterial eradication number (H. pylori ATCC 43504; 20 mg/kg twice a day) | bacterial eradication % (H. pylori ATCC 43504; 20 mg/kg twice a day) | Number of each bacterium in stomach (H. pylori ATCC 43504; 20 mg/kg twice a day) | bacterial eradication effect (H. pylori ATCC 43504) | Bacterial eradication number (H. pylori ATCC 43504; 40 mg/kg twice a day) | bacterial eradication % (H. pylori ATCC 43504; 40 mg/kg twice a day) | Number of each bacterium in stomach (H. pylori ATCC 43504; 40 mg/kg twice a day) | bacterial eradication effect (samples) (H. pylori ATCC 43504; 20 mg/kg)
CN(C)[C@@H]1C(O)=C(C(N)=O)C(=O)[C@@]2(O)C(O)=C3C(=O)c4c(O)cccc4[C@@](C)(O)[C@H]3C[C@@H]12 [Tetracycline, tetracycline] | – | – | – | – | – | – | – | 1.56 µg/mL (≈ 3.51 µM) | – | 3.13 µg/mL (≈ 7.04 µM) | > 25 µg/mL | – | – | – | – | – | – | – | –
